# Patent US10011598B2, “Small molecules targeting repeat r(CGG) sequences” (THE SCRIPPS RESEARCH INSTITUTE, priority 2012, dated 2018)
# Entries after “also recorded” stand apart in the source; their conditions may differ. Read-outs that look alike come from different tables or passages of the source.
# Key:
# r(CGG)12-DGCR8Δ complex = experiment: TR-FRET protein displacement assay; type: biochemical; settings: for inhibition of the r(CGG)12-DGCR8Δ interaction, in words: comparison within the tested compounds; for Percentage displacement at 25 μM: 25 μM compound, DGCR8Δ displaced from r(CGG)12
# [1] = system: SMN2 exon 7 alternative splicing; experiment: SMN2 mini-gene splicing in COS7 cells (FXTAS model), RT-PCR; type: cell-based; settings: for SMN2 pre-mRNA splicing defects, in words: figure legends
# Excerpt: Encouraged by our TR-FRET assay results, we tested the bioactivity of the optimal dimeric small molecule, 2E-5NMe, by using a FXTAS cellular model. In the FXTAS cell model, r(CGG)^exp binds and sequesters Sam68, a pre-mRNA splicing regulator. Sequestration of Sam68 causes its inactivation and dysregulation of alternative pre-mRNA splicing. In particular, the alternative splicing of exon 7 of the survival motor neuron-2 pre-mRNA (SMN2; involved in maintenance of motor neurons and mRNA processing) is dysregulated. Exon 7 is included too frequently when r(CGG)^exp is expressed, ˜70% of time as compared to normal cells in which exon 7 has an inclusion rate of only ˜40% (FIG. 14). Experiments were completed as previously described. Briefly. COS7 cells were co-transfected with plasmids expressing an SMN2 alternative splicing reporter and r(CGG)60. The transfection cocktail was removed, and the cells were incubated with fresh medium containing serially diluted concentrations of compound for 24 h. Total RNA was harvested, and splicing patterns were analyzed via RT-PCR. Remarkably, at […] concentration, 2E-5NMe restores alternative pre-mRNA splicing patterns back to the wild type. The monomer 1a required 10 times higher concentration for the same effect.
# (§1) In order to determine if a improves FXTAS-associated splicing defects in vivo, a cell culture model system was used. Briefly. COS7 cells were grown as monolayers in 24- or 96-well plates in growth medium (1×DMEM, 10% FBS, and 1× GlutaMax (Invitrogen)). After the cells reached 90-95% confluency, they were transfected using Lipofectamine 2000 reagent (Invitrogen) or PugenHD (Roche) per the manufacturer's standard protocol. Equal amounts of a plasmid expressing a 60 CGG repeats and a mini-gene of interest (SMN2 or Bcl-x) were used. Approximately 5 h post-transfection, the transfection cocktail was removed and replaced with growth medium containing 1a. After 16-24 h, the cells were lysed in the plate, and total RNA was harvested with a Qiagen RNAEasy kit or a GenElute kit (Sigma). An on-column DNA digestion was completed per the manufacturer's recommended protocol.
# (§2) A sample of RNA was subjected to reverse transcription-polymerase chain reaction (RT-PCR) using 5 units of AMV Reverse Transcriptase from Life Sciences or Superscript II (Invitrogen). Approximately 300 ng were reverse transcribed, and 150 ng were subjected to PCR. RT-PCR products were observed after 25-30 cycles of: 95° C. for 1 min: 55° C. for 1 min; 72° C. for 2 min and a final extension at 72° C. for 10 min. The products were separated by polyacrylamide or agarose gel electrophoresis, stained, and imaged using a Typhoon phosphorimager. The splicing isoforms were quantified using QuantityOne software (BioRad). Table S-2 lists the RT-PCR primers used for each mini-gene construct.
# [2] = system: PLEKHH2 alternative splicing; experiment: PLEKHH2 mini-gene control splicing in COS7 cells; type: cell-based; settings: for effect on PLEKHH2 splicing: no concentration stated, not regulated by Sam68
# Excerpt: (§3) Control experiments were also completed to determine the specificity of 1a; that is if it affects the splicing of RNAs not controlled by Sam68. In these experiments, a PLEKHH2 (15) or cardiac troponin T (cTNT) (32) mini-gene was used, as their alternative splicing is not regulated by Sam68. […] Thus, the effect of 1a on pre-mRNA splicing appears to be specific to the splicing of pre-mRNAs regulated by Sam68.
# [3] = system: cTNT alternative splicing; experiment: cTNT mini-gene control splicing in COS7 cells; type: cell-based; settings: for effect on cTNT splicing: no concentration stated, not regulated by Sam68
# Excerpt: as §3
# [4] = target: RNA containing one 5′CGG/3′GGC motif; experiment: RNA-binding assay via Hoechst 33258 dye displacement; settings: RNA with one 5′CGG/3′GGC motif; Table 1
# Method: Dissociation constants were determined using an in-solution, fluorescence-based assay (37-45). RNA was annealed in DNA buffer (8 mM Na2HPO4, pH7.0, 185 mM NaCl, 0.1 mM EDTA, 40 μg/mL BSA) at 60° C. for 5 min and allowed to slowly cool to room temperature. The annealed RNA was then titrated into DNA buffer containing 1000 nM Hoechst 33258. Fluorescence signal was recorded using a Bio-Tek FLX-800 plate reader, which was equipped with excitation filter at 360/40 nm and emission filter at 460/40 nm. The change in fluorescence intensity as a function of RNA concentration was fit to the following equation (eq. 3): (37, 46) I=I0+0.5Δϵ{([Ht0]+[RNA]0+Kt)−(([Ht]0+[RNA]0+Kt)^2−4[Ht]0[RNA]0)^0.5} (eq. 3) where I is the observed fluorescence intensity, I0 is the fluorescence intensity in the absence of RNA, Δϵ is the difference between the fluorescence intensity in the absence of RNA and in the presence of infinite RNA concentration and is in units of M^−1. […]
# Ligands 1a-1d were then added to compete for binding to the RNA (1 μM) in presence of Hoechst 33258 (1 μM). Reduction in fluorescence of Hoechst 33258 was measured using a Bio-Tek FLX-800 plate reader as a function of ligand concentration (1a-1d) and was fit to the following equation (eq. 4): (41) […]
# DGCR8Δ = experiment: Competition dialysis; type: binding; settings: 0.7 μM ligand, 2 μM protein
# Method: (§4) Competition dialysis was completed as previously described (31). Briefly, 2 μM RNA or protein was transferred into Slide-a-Lyzer MINI dialysis units with a molecular weight cut-off of 2,000 (Thermo Scientific), and the units were placed into a solution of 0.7 μM ligand. Two blank units containing only buffer were used to monitor equilibration by checking the absorbance at the peak wavelength. After the blank units reached equilibrium, sodium dodecyl sulfate (SDS) was added to a final concentration of 1%, and the absorbance was measured. This absorbance was used to determine total ligand concentration (Ct). The concentration of the dialysate (free ligand concentration. Cf) was determined analogously. The bound ligand concentration (Cb) was then determined using equation 2: Cb=Ct−Cf (eq. 2) where Cb, Ct, and Cf are concentrations of bound, total, and free ligand, respectively. RNA-Binding Assays Via Dye Displacement.
# fully paired RNAs = experiment: Competition dialysis; type: binding; settings: 0.7 μM ligand, 2 μM RNA
# Method: as §4
# r(CGG)12 = experiment: Competition dialysis; type: binding; settings: 0.7 μM ligand, 2 μM RNA
# Method: as §4
# [5] = system: Bcl-x exon 2 alternative splicing; experiment: Bcl-x mini-gene splicing in COS7 cells (FXTAS model), RT-PCR; type: cell-based; settings: for Bcl-x splicing: COS7 cells expressing r(CGG)60
# Method: as §1, §2
# r(CGG)^exp nuclear foci = experiment: Nuclear foci by fluorescence in situ hybridization (FISH) in COS7 cells; type: cell-based; settings: COS7 cells transfected with r(CGG)60 and GFP
# Method: FISH experiments were completed as previously described. (8) Briefly, COS7 cells were plated onto glass coverslips and co-transfected with plasmids encoding for r(CGG)60 and GFP. The cells were fixed in 4% paraformaldehyde in PBS (pH 7.4) for 15 min and washed three times with PBS. Then, they were permeabilized with 0.5% Triton X-100 in PBS. Prior to addition of the FISH probe, the cells were pre-hybridized in a 2×SSC buffer containing 40% formamide and 10 mg/mL BSA for 30 min. The coverslips were hybridized for 2 h in 2×SSC buffer supplemented with 40% formamide, 2 mM vanadyl ribonucleoside, 60 μg/mL tRNA, 30 μg/mL BSA, and 0.75 μg (CCG)8-Cy3 DNA oligonucleotide probe. The cells were washed twice in 2×SSC containing 50% formamide and then twice in 2×SSC. Following FISH the coverslips were incubated for 10 min in 2×SSC containing 1 μg/mL DAPI and rinsed twice in 2×SSC. The coverslips were then mounted in Pro-Long media and examined using either a simple fluorescence microscope (Leica) or a Leica DM4000 B confocal microscope.
# [6] = 62 times of competitor tRNA, Table 2, read-out: IC50 at the presence of 62 times of competitor, tRNA
# [7] = inhibition of r(CGG)12-DGCR8Δ complex, Table 2, read-out: IC50
# [8] = disruption of r(CGG)12-DGCR8Δ complex, Table 1, read-out: IC50
# [9] = read-out: IC50 for disruption of r(CGG)12-DGCR8Δ complex / inhibition of protein binding
# [10] = cells that do not express r(CGG)60
# [11] = 500 μM, splicing not regulated by Sam68
Percentage displacement at 25 μM (r(CGG)12-DGCR8Δ complex; Table 1) [%],IC50 (r(CGG)12-DGCR8Δ complex; [8]) [µM],SMILES,"r(CGG)12-DGCR8Δ complex formation, % (r(CGG)12-DGCR8Δ complex; 1 μM compound, Table 2) [%]","r(CGG)12-DGCR8Δ complex formation, % (r(CGG)12-DGCR8Δ complex; 10 μM compound, Table 2) [%]",IC50 (r(CGG)12-DGCR8Δ complex; [6]) [µM],"inhibition of the r(CGG)12-DGCR8Δ interaction, in words (r(CGG)12-DGCR8Δ complex)",IC50 (r(CGG)12-DGCR8Δ complex; [7]) [µM],"SMN2 pre-mRNA splicing defects, in words ([1]; COS7 cells expressing r(CGG)60)",effect on PLEKHH2 splicing [2],effect on cTNT splicing [3],IC50 (r(CGG)12-DGCR8Δ complex; [9]) [µM],Kd [4] [µM],also measured
,,Cc1c2cc[n+](Cc3cn(CCCNCC(=O)N(C)C(C)C(=O)N(C)C(C)C(=O)N(C)C(C)C(=O)N(C)C(C)C(=O)N(C)C(C)C(=O)N(CCCn4cc(C[n+]5ccc6c(C)c7[nH]c8ccc(O)cc8c7c(C)c6c5)nn4)CC(N)=O)nn3)cc2c(C)c2c1[nH]c1ccc(O)cc12 (stereo not shown) [2E-5NMe],39.6 ± 0.6,5.0 ± 2.6,3.52,the most potent compound,0.47 ± 0.08,reduction of pro-mRNA splicing defects,does not affect,does not affect,,,"potency relative to the monomer 1a (r(CGG)12-DGCR8Δ complex; IC50 ratio): ~8 fold; r(CGG)12-DGCR8D complex inhibited (r(CGG)12-DGCR8Δ complex; at 1 mM (so in the source)): 60%; r(CGG)12-DGCR8D complex inhibited (r(CGG)12-DGCR8Δ complex; at 10 mM (so in the source)): 95%; concentration that restores alternative pre-mRNA splicing patterns back to the wild type ([1]; SMN2, COS7 cells with r(CGG)60, 24 h): 50 mM; effect on alternative splicing in healthy cells ([1]; cells without r(CGG)60): does not affect"
46 ± 5,~25,"Cc1c2ccncc2c(C)c2c1[nH]c1ccc(O)cc12 [1e, 9-hydroxyellipticine]",,,,markedly decreased,,,,,~25,,
87 ± 5,7 ± 0.2,"Cc1c2cc[n+](C)cc2c(C)c2c1[nH]c1ccc(O)cc12 [1d, elliptinium]",,,,,,,,,,0.05 ± 0.018,

SMILES,Percentage displacement at 25 μM (r(CGG)12-DGCR8Δ complex; Table 1) [%],IC50 (r(CGG)12-DGCR8Δ complex; [8]) [µM],"r(CGG)12-DGCR8Δ complex formation, % (r(CGG)12-DGCR8Δ complex; 1 μM compound, Table 2) [%]","r(CGG)12-DGCR8Δ complex formation, % (r(CGG)12-DGCR8Δ complex; 10 μM compound, Table 2) [%]",IC50 (r(CGG)12-DGCR8Δ complex; [6]) [µM],"inhibition of the r(CGG)12-DGCR8Δ interaction, in words (r(CGG)12-DGCR8Δ complex)",IC50 (r(CGG)12-DGCR8Δ complex; [7]) [µM],"SMN2 pre-mRNA splicing defects, in words ([1]; COS7 cells expressing r(CGG)60)",effect on PLEKHH2 splicing [2],effect on cTNT splicing [3],IC50 (r(CGG)12-DGCR8Δ complex; [9]) [µM],Kd [4] [µM],also measured
"Cc1c2cc[n+](CCN3CCCCC3)cc2c(C)c2c1[nH]c1ccc(O)cc12 [1a, 9-hydroxy-5,11-dimethyl-2-(2-(piperidin-1-yl)ethyl)-6H-pyrido[4,3-b]carbazol-2-ium]",85 ± 1,13 ± 0.4,66.9 ± 0.7,20.4 ± 0.8,20.1,,3.84 ± 0.3,improves SMN2 pre-mRNA splicing defects,not to effect splicing; also recorded: non-effect,not to effect splicing; also recorded: non-effect,12,0.076 ± 0.004,"binding to DGCR8Δ (DGCR8Δ): very little binding; amount of ligand partitioned into fully paired RNAs relative to r(CGG)12 (fully paired RNAs): less than half; binding to r(CGG)12 (r(CGG)12): binds tightly; SMN2 pre-mRNA splicing level ([1]; 100 μM, COS7 cells expressing r(CGG)60): approximately 70 % of wild type; SMN2 pre-mRNA splicing ([1]; 500 μM, COS7 cells expressing r(CGG)60): restores pre-mRNA splicing to levels wild type; concentration at which improvement of SMN2 splicing defects can be observed ([1]; COS7 cells expressing r(CGG)60): 20 µM; concentration required for the same effect relative to 2E-5NMe ([1]; SMN2 splicing restored to wild type): 10 times; effect on SMN2 splicing [1, 10]: No statistically significant effect; Bcl-x splicing ([5]; 100 μM): Statistically significant improvement; Bcl-x splicing ([5]; 500 μM): restoration of wild type splicing patterns; Bcl-x pre-mRNA splicing defects, in words ([5]; COS7 cells expressing 60 r(CGG) repeats): improves Bcl-x pre-mRNA splicing defects; effect on Bcl-x splicing [5, 10]: No statistically significant effect; effect on PLEKHH2 alternative splicing [2, 11]: did not affect; effect on cTNT alternative splicing [3, 11]: did not affect; size and number of r(CGG)^exp nuclear foci / aggregates (r(CGG)^exp nuclear foci): reduces the size and the number of foci; also recorded: reduced formation of r(CGG)^exp aggregation; also recorded: decreases r(CGG)^exp-protein aggregates"
